Data: US8691842B2, “Pharmaceutical composition for preventing or treating rheumatoid arthritis, containing rebamipide” (Catholic University Industry Academic Cooperation Foundation, priority 2009, dated 2014)
Entries after “also recorded” stand apart in the source; their conditions may differ.

Legend:
Format in all cases: in vivo, DBA/1J mice
[1] = test system: collagen induced arthritis (CIA) animal model; assay: Average arthritis score in collagen induced arthritis (CIA) animals; conditions: CIA mice; rebamipide 0.6 mg/kg or 6 mg/kg orally, every other day, ten times; evaluated second to tenth week; FIG. 1
[2] = test system: collagen induced arthritis (CIA) animal model; assay: Histological test of joints and cartilage in CIA animals; conditions: CIA mice, FIG. 2
[3] = test system: CII-specific immunoglobulin (total IgG); assay: Serologic test (ELISA) measuring collagen-specific antibody in serum of CIA animals; conditions: CIA mice, rebamipide orally, serum diluted 1:8000, FIG. 3

In the case of `O=C(NC(Cc1cc(=O)[nH]c2ccccc12)C(=O)O)c1ccc(Cl)cc1` (stereo not shown) [rebamipide], the arthritis score [1] is reported as “dose-dependently decreased; also recorded: gradually decreased”, the “degree of joint and cartilage destruction” value ([2]; rebamipide 0.6 mg/kg or 6 mg/kg orally, sacrificed after 10 weeks, hematoxylin and eosin, toluidine blue, safranin O) is reported as “remarkably reduced” and the “degree of cartilage destruction” value ([2]; rebamipide orally, histological assay) is reported as “improved, being similar to that of a normal mouse”. The “level of Type II collagen-specific immunoglobulin (total IgG) in serum” value [3] was “significantly decreased”.
